Assay [1] has as its target T1, Human μ-opioid (MOP) (Homo sapiens, UniProt P35372).
T1 construct: purchased Perkin Elmer Biosignal
Kind of assay: Radioligand binding, human μ-opioid (MOP) membranes, FlashPlate, [3H]-Naloxone. The settings on record: compound at 10 μM; [3H]-Naloxone, human MOP membranes. A digest of the protocol:
(§1)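 Cloned human receptor membranes were coated onto FlashPlate wells and incubated with radioligand and compound (added from a 0.5 mM DMSO daughter plate) for 1 hour at room temperature in the dark. Scintillation counting gave percent inhibition, with DMSO defining total and reference ligand defining non-specific binding.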

Assay [2] has as its target T2, Human neuropeptide Y (NPY-Y1) (Homo sapiens, UniProt P25929).
T2 construct: purchased Perkin Elmer Biosignal
T2 sequence (P25929 1-384): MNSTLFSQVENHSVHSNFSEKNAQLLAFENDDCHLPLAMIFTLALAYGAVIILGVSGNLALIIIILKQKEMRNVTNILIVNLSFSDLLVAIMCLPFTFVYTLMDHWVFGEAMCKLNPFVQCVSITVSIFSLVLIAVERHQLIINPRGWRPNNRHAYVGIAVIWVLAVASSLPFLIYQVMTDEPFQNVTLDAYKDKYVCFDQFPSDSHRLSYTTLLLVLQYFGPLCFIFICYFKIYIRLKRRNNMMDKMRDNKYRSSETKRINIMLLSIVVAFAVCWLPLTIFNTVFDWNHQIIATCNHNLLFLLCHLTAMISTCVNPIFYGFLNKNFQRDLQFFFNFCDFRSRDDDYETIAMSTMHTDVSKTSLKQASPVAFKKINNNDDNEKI
Put plainly: Radioligand binding, human neuropeptide Y NPY-Y1 membranes, FlashPlate, [125I]-PYY. To be noted: compound at 10 μM; [125I]-PYY, human NPY-Y1 membranes. A digest of the protocol:
as §1

Assay [3] addresses T3, Human Melanocortin (MC4) (Homo sapiens, UniProt P32245).
T3 construct: purchased Perkin Elmer Biosignal
Kind of assay: Radioligand binding, human melanocortin MC4 membranes, FlashPlate, [125I]-NDP-αMSH. To be noted: compound at 10 μM; [125I]-NDP-αMSH, human MC4 membranes. A digest of the protocol:
as §1

In assay [4] the target is T4, Human neurokinin (NK1) (Homo sapiens, UniProt P25103).
T4 construct: purchased Perkin Elmer Biosignal
Put plainly: Radioligand binding, human neurokinin NK1 membranes, filtration, [125I]-Substance P. The settings on record: compound at 10 μM; [125I]-Substance P, human NK1 membranes. A digest of the protocol:
(§2)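 Membranes from cloned human receptors were incubated with compound and radioligand for 1 hour at room temperature. Bound ligand was collected on 0.3% PEI-soaked filters, washed with cold 50 mM Tris-HCl pH 7.4, and counted by scintillation. Percent inhibition was computed against DMSO totals and reference-ligand nonspecific wells.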

The target in assay [5] is T5, Human melanocortin (MC5) (Homo sapiens, UniProt P33032).
T5 construct: purchased Perkin Elmer Biosignal
Put plainly: Radioligand binding, human melanocortin MC5 membranes, FlashPlate, [125I]-NDP-αMSH. The settings on record: compound at 10 μM; [125I]-NDP-αMSH, human MC5 membranes. In a few lines:
as §1

The target in assay [6] is T6, Human melanin-concentrating hormone (MCH1) (Homo sapiens, UniProt Q99705).
T6 construct: purchased Perkin Elmer Biosignal
Put plainly: Radioligand binding, human melanin-concentrating hormone MCH1 membranes, FlashPlate, [125I]-S36057. The settings on record: compound at 10 μM; [125I]-S36057, human MCH1 membranes. A digest of the protocol:
as §1

Assay [7] concerns the target T7, Human δ-opioid (DOP) (Homo sapiens, UniProt P41143).
T7 construct: purchased Perkin Elmer Biosignal
Put plainly: Radioligand binding, human δ-opioid (DOP) membranes, FlashPlate, [3H]-Bremazocine. To be noted: compound at 10 μM; [3H]-Bremazocine, human DOP membranes. A digest of the protocol: as §1

Assay [8] concerns the target T8, Mouse urotensin (mUR2) (Mus musculus, UniProt Q8VIH9).
T8 construct: purchased Perkin Elmer Biosignal
T8 sequence (Q8VIH9 1-385): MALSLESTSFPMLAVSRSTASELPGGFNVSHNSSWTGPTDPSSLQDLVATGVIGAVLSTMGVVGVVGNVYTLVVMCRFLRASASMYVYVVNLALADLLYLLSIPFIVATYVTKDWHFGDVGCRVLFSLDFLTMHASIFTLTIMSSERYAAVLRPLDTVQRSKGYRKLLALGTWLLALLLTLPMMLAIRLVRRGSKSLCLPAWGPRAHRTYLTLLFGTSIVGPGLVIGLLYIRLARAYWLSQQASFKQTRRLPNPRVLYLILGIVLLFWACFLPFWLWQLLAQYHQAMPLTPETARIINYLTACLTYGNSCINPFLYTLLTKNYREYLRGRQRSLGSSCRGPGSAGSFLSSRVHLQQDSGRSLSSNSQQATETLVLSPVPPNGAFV
Put plainly: Radioligand binding, mouse urotensin mUR2 membranes, FlashPlate, [125I]-Urotensin II. To be noted: compound at 10 μM; [125I]-Urotensin II, mouse mUR2 membranes. In a few lines: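 Cloned mouse urotensin (mUR2) receptor membranes from Perkin Elmer Biosignal were immobilized in FlashPlate microplates using a proprietary coating. Each well got 19.5 μl buffer, then 0.5 μl of DMSO, reference ligand, or compound. Adding 5 μl of [125I]-Urotensin II, diluted to 5× final concentration in binding buffer, started binding. Plates were sealed with TopSeal-A and incubated 1 hour at room temperature in the dark. Wells were counted for 30 seconds each on a TopCount after a 60-second delay, and percentage inhibition was calculated.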

The target in assay [9] is T9, Human opioid (ORL1) (Homo sapiens, UniProt P41146).
T9 construct: purchased Perkin Elmer Biosignal
Kind of assay: Radioligand binding, human opioid ORL1 membranes, FlashPlate, [125I]-Nociceptin. To be noted: compound at 10 μM; [125I]-Nociceptin, human ORL1 membranes. In a few lines:
as §1

Assay [10] addresses T10, Human Melanocortin (MC3) (Homo sapiens, UniProt P41968).
T10 construct: purchased Perkin Elmer Biosignal
Put plainly: Radioligand binding, human melanocortin MC3 membranes, FlashPlate, [125I]-NDP-αMSH. To be noted: compound at 10 μM; [125I]-NDP-αMSH, human MC3 membranes. A digest of the protocol: as §1

For assay [11], the target named is T11, Human κ-Opioid (KOP) (Homo sapiens, UniProt P41145).
T11 construct: purchased Perkin Elmer Biosignal
Kind of assay: Radioligand binding, human κ-opioid (KOP) membranes, filtration, [3H]-Diprenorphine. To be noted: compound at 10 μM; [3H]-Diprenorphine, human KOP membranes. A digest of the protocol:
as §2

T9 sequence (P41146 whole entry): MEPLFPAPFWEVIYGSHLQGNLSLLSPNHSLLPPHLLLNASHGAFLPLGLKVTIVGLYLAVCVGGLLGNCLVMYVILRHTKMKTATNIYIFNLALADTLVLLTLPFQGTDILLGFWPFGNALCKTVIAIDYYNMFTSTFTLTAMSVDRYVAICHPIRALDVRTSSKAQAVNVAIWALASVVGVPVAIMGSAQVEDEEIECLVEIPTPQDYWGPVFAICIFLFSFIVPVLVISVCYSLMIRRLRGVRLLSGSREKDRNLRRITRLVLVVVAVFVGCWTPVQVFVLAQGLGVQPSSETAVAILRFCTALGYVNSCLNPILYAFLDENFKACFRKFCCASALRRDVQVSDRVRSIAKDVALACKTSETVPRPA
T4 sequence (P25103 whole entry): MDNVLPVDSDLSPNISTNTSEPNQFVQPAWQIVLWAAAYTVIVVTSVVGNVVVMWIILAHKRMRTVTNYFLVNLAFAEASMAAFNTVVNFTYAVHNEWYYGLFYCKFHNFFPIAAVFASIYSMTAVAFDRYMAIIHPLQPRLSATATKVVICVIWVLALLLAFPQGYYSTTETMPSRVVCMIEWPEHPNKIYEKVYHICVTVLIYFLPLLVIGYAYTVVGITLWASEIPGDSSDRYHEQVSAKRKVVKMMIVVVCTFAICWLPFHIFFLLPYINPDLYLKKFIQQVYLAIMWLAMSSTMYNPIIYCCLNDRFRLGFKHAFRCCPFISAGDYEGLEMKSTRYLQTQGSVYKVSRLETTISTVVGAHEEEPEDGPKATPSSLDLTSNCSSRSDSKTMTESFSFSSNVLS
T10 sequence (P41968 whole entry): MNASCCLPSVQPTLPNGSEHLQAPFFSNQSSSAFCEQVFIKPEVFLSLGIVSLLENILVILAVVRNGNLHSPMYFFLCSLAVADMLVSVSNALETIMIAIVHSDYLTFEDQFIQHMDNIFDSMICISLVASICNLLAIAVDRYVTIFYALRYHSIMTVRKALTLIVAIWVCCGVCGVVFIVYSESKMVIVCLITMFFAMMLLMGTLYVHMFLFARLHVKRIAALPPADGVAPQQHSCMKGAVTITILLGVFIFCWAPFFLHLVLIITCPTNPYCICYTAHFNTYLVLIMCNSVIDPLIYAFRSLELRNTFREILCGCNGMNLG
T3 sequence (P32245 whole entry): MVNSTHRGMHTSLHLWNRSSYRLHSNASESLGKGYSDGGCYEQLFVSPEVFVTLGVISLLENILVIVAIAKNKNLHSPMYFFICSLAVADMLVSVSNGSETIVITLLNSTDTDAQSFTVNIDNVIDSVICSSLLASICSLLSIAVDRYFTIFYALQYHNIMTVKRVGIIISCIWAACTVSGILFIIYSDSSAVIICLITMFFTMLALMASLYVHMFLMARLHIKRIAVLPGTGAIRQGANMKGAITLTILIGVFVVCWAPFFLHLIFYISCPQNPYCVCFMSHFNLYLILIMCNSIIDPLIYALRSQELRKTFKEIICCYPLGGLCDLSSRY
T7 sequence (P41143 whole entry): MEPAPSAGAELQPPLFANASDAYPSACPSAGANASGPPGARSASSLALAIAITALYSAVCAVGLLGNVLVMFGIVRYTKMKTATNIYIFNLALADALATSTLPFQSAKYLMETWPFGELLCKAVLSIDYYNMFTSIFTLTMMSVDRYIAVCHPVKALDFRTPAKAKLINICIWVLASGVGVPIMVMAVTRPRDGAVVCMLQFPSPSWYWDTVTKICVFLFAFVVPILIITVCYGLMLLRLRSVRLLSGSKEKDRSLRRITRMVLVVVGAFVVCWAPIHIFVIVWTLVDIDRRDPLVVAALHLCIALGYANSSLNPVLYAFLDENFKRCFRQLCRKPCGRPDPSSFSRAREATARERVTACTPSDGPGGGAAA
T11 sequence (P41145 whole entry): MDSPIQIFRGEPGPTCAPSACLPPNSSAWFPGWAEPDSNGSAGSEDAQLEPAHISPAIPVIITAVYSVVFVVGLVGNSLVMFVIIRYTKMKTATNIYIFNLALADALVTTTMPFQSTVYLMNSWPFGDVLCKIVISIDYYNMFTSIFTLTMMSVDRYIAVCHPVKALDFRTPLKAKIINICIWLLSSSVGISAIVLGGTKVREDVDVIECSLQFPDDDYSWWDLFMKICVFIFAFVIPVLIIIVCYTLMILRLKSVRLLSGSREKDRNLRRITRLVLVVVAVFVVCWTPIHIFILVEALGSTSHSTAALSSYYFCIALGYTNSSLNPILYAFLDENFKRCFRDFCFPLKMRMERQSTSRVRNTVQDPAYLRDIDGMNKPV
T6 sequence (Q99705 whole entry): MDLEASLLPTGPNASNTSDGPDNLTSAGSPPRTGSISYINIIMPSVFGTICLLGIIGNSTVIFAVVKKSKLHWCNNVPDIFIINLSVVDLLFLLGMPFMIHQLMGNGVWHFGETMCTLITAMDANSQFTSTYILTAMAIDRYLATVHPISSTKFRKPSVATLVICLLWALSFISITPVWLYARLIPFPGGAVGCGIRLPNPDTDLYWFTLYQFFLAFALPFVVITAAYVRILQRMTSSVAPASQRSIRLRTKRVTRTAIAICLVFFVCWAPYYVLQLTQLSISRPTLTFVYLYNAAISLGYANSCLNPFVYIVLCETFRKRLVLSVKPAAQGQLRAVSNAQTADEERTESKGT
T1 sequence (P35372 whole entry): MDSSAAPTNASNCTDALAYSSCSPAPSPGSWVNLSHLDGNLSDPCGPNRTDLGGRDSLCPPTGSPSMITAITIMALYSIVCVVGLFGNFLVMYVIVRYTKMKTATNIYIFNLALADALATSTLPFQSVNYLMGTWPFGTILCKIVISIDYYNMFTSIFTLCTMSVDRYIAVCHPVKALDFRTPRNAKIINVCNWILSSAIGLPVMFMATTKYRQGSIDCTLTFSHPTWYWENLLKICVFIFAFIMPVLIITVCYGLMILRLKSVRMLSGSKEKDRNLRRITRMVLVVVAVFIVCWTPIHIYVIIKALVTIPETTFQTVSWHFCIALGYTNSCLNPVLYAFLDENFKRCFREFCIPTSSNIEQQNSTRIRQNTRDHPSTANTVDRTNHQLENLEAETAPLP
T5 sequence (P33032 whole entry): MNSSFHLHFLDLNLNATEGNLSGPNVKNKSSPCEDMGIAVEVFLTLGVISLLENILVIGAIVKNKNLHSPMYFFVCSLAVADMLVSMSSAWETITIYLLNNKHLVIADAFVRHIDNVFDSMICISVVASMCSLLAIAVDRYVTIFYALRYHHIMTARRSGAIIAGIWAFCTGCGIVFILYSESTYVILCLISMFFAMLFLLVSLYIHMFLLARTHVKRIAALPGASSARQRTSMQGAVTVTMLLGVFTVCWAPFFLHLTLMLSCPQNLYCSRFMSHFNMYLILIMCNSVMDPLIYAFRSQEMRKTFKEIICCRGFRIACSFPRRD

Consider `N=C(N)NCCC(=O)NC1C(OCc2ccc(Cl)cc2)OC(COCc2ccc3ccccc3c2)C(O)C1OCc1ccc(-c2ccccc2)cc1` (stereo not drawn) [compound 432], for which the “A7: inhibition of radioligand binding” value in assay [1] is reported as “− (“−” indicates less than 50% inhibition at 10 μM)”. In addition, in assay [2], the “A9: inhibition of radioligand binding” value was “− (“−” indicates less than 50% inhibition at 10 μM)”. Besides, the “A4: inhibition of radioligand binding” value in assay [3] was “+ (“+” indicates greater than 50% inhibition at 10 μM)”. In addition, the “A8: inhibition of radioligand binding” value in assay [4] is given as “+ (“+” indicates greater than 50% inhibition at 10 μM)”. The “A5: inhibition of radioligand binding” value in [5] was “+ (“+” indicates greater than 50% inhibition at 10 μM)”. Besides, the “A6: inhibition of radioligand binding” value in assay [6] is reported as “+ (“+” indicates greater than 50% inhibition at 10 μM)”. Further, the “A1: inhibition of radioligand binding” value in [7] is listed as “− (“−” indicates less than 50% inhibition at 10 μM)”. For the same compound, in [8], the “A11: inhibition of radioligand binding” value was “− (“−” indicates less than 50% inhibition at 10 μM)”. Also, the “A10: inhibition of radioligand binding” value in assay [9] is recorded as “− (“−” indicates less than 50% inhibition at 10 μM)”. Moreover, in assay [10], the “A3: inhibition of radioligand binding” value is “+ (“+” indicates greater than 50% inhibition at 10 μM)”. Besides, the “A2: inhibition of radioligand binding” value in assay [11] is “− (“−” indicates less than 50% inhibition at 10 μM)”.

Consider `N=C(N)NCCC(=O)NC1C(OCc2ccc(Cl)cc2)OC(COCc2ccccc2)C(O)C1OCc1ccc(-c2ccccc2)cc1` (stereo not drawn) [compound 433], for which, in assay [1], the “A7: inhibition of radioligand binding” value is reported as “− (“−” indicates less than 50% inhibition at 10 μM)”. In addition, the “A9: inhibition of radioligand binding” value in [2] is listed as “− (“−” indicates less than 50% inhibition at 10 μM)”. For the same compound, the “A4: inhibition of radioligand binding” value in [3] is on record as “+ (“+” indicates greater than 50% inhibition at 10 μM)”. Besides, in [4], the “A8: inhibition of radioligand binding” value is on record as “+ (“+” indicates greater than 50% inhibition at 10 μM)”. Moreover, the “A5: inhibition of radioligand binding” value in assay [5] is “+ (“+” indicates greater than 50% inhibition at 10 μM)”. Besides, the “A6: inhibition of radioligand binding” value in [6] is “+ (“+” indicates greater than 50% inhibition at 10 μM)”. The “A1: inhibition of radioligand binding” value in assay [7] was “− (“−” indicates less than 50% inhibition at 10 μM)”. Moreover, the “A11: inhibition of radioligand binding” value in assay [8] was “− (“−” indicates less than 50% inhibition at 10 μM)”. Further, in assay [9], the “A10: inhibition of radioligand binding” value is on record as “− (“−” indicates less than 50% inhibition at 10 μM)”. For the same compound, the “A3: inhibition of radioligand binding” value in [10] is on record as “− (“−” indicates less than 50% inhibition at 10 μM)”. Moreover, the “A2: inhibition of radioligand binding” value in assay [11] is on record as “− (“−” indicates less than 50% inhibition at 10 μM)”.

As to `N=C(N)NCCC(=O)NC1C(OCc2ccc(Cl)cc2)OC(COCc2ccc(Cl)cc2)C(O)C1OCc1ccc(-c2ccccc2)cc1` (stereo not drawn) [compound 434], the “A7: inhibition of radioligand binding” value in assay [1] was “− (“−” indicates less than 50% inhibition at 10 μM)”. Also, the “A9: inhibition of radioligand binding” value in assay [2] is reported as “− (“−” indicates less than 50% inhibition at 10 μM)”. For the same compound, the “A4: inhibition of radioligand binding” value in assay [3] is “+ (“+” indicates greater than 50% inhibition at 10 μM)”. For the same compound, in [4], the “A8: inhibition of radioligand binding” value is given as “+ (“+” indicates greater than 50% inhibition at 10 μM)”. For the same compound, the “A5: inhibition of radioligand binding” value in assay [5] is “+ (“+” indicates greater than 50% inhibition at 10 μM)”. Besides, the “A6: inhibition of radioligand binding” value in assay [6] was “+ (“+” indicates greater than 50% inhibition at 10 μM)”. In addition, in assay [7], the “A1: inhibition of radioligand binding” value is listed as “− (“−” indicates less than 50% inhibition at 10 μM)”. Also, the “A11: inhibition of radioligand binding” value in assay [8] is on record as “− (“−” indicates less than 50% inhibition at 10 μM)”. Moreover, the “A10: inhibition of radioligand binding” value in assay [9] was “− (“−” indicates less than 50% inhibition at 10 μM)”. Moreover, the “A3: inhibition of radioligand binding” value in assay [10] was “+ (“+” indicates greater than 50% inhibition at 10 μM)”. For the same compound, in [11], the “A2: inhibition of radioligand binding” value is given as “− (“−” indicates less than 50% inhibition at 10 μM)”.

(Values after patent US20080009418A1, “Selective Inhibitors” (Alchemia LTD., priority 2004, published 2008).)
